Laboratory results from publication PMC6150216, “Oleanane-Type Saponins from the Roots of Ligulariopsis shichuana and Their α-Glucosidase Inhibitory Activities” (Molecules : A Journal of Synthetic Chemistry and Natural …, 2017).
Entries after “also recorded” stand apart in the source; their conditions may differ.

Legend:
[1] = target: yeast α-glucosidase; assay: α-Glucosidase inhibitory activity assay; format: biochemical; conditions: for IC50: compound concentration that inhibits α-glucosidase activity by 50%, acarbose positive control, read-out: IC50 against α-glucosidase; for α-glucosidase inhibitory activity (in words): qualitative statement
Description: α-Glucosidase inhibitory activity was examined by the method described by Omar et al..

[2] = system: glucose-loaded rats; parameters: method as in PMID 11237187; conditions: cited from earlier work

In the case of `CC1(C)CC[C@]2(C=O)[C@@H](O)C[C@]3(C)C(=CC[C@@H]4[C@@]5(C)CC[C@H](O[C@@H]6O[C@H](C(=O)O)[C@@H](O)[C@H](O)[C@H]6O)C(C)(C)[C@@H]5CC[C@]43C)[C@@H]2C1` [Compound 1, Ligushicoside A], the IC50 [1] is reported as 18.7 ± 1.7 µM and the “α-glucosidase inhibitory activity (in words)” value [1] is reported as “excellent inhibitory activities; also recorded: excellent inhibitory activity”.

In the case of `COC(=O)[C@H]1O[C@@H](O[C@H]2CC[C@]3(C)[C@H]4CC=C5[C@@H]6CC(C)(C)CC[C@]6(C=O)[C@@H](O)C[C@@]5(C)[C@]4(C)CC[C@H]3C2(C)C)[C@H](O)[C@@H](O)[C@@H]1O` [Compound 2, Ligushicoside B], the IC50 [1] is reported as 37.9 ± 3.6 µM and the “α-glucosidase inhibitory activity (in words)” value [1] is reported as “excellent inhibitory activities; also recorded: excellent inhibitory activity”.

For `COC(=O)[C@H]1O[C@@H](O[C@H]2CC[C@]3(C)[C@H]4CC=C5[C@@H]6CC(C)(C)CC[C@]6(C)[C@@H](O)C[C@@]5(C)[C@]4(C)C[C@@H](O)[C@H]3C2(C)C)[C@H](O)[C@@H](O)[C@@H]1O` [Compound 3, Ligushicoside C], the IC50 [1] was 105 ± 4.3 µM.

`COC(=O)[C@H]1O[C@@H](O[C@H]2CC[C@]3(C)[C@H]4CC=C5[C@@H]6CC(C)(C)CC[C@]6(CO)[C@@H](O)C[C@@]5(C)[C@]4(C)C[C@@H](O)[C@H]3C2(C)C)[C@H](O)[C@@H](O)[C@@H]1O` [Compound 4, Ligushicoside D] showed an IC50 [1] of 89.7 ± 5.1 µM.

`COC(=O)[C@H]1O[C@@H](O[C@H]2CC[C@]3(C)[C@H]4CC=C5[C@@H]6CC(C)(C)CC[C@]6(CO)[C@@H](O)C[C@@]5(C)[C@]4(C)CC[C@H]3C2(C)C)[C@H](O)[C@@H](O)[C@@H]1O` [Compound 5, Ligushicoside E] showed an IC50 [1] of 154 ± 11.2 µM.

`CC1(C)CC[C@]2(CO)[C@@H](O)C[C@]3(C)C(=CC[C@@H]4[C@@]5(C)CC[C@H](O[C@@H]6O[C@H](C(=O)O)[C@@H](O)[C@H](O)[C@H]6O)C(C)(C)[C@@H]5CC[C@]43C)[C@@H]2C1` [Compound 6, longispinogenin 3-O-β-D-glucuronopyranoside] gave an IC50 [1] of 42.6 ± 5.9 µM.

For `CC1(C)CC[C@]2(C(=O)O)CC[C@]3(C)C(=CC[C@@H]4[C@@]5(C)CC[C@H](O[C@@H]6O[C@H](C(=O)O)[C@@H](O)[C@H](O)[C@H]6O)C(C)(C)[C@@H]5CC[C@]43C)[C@@H]2C1` [Compound 7, calenduloside E], the IC50 [1] is listed as 57.6 ± 6.8 µM and the “effect on the incensement of serum glucose levels” value [2] is listed as “significant effects; also recorded: strongly inhibited”.

For `COC(=O)[C@H]1O[C@@H](O[C@H]2CC[C@]3(C)[C@H]4CC=C5[C@@H]6CC(C)(C)CC[C@]6(C(=O)O)CC[C@@]5(C)[C@]4(C)CC[C@H]3C2(C)C)[C@H](O)[C@@H](O)[C@@H]1O` [Compound 8, calenduloside E 6′-methyl ester], the IC50 [1] is listed as 134 ± 3.3 µM and the “effect on the incensement of serum glucose levels” value [2] is listed as “significant effects”.
